Here are results for 9 compounds from PubChem BioAssay (NCI).

Some test systems named below: SK-OV-3 ovarian; SF-295 CNS; SK-MEL-28 melanoma; SR leukemia; SN12C renal; UO-31 renal; NCI/ADR-RES ovarian; HS 578T breast; NCI-H522 lung; NCI-H226 lung.
Holding throughout (assay): NCI-60 cell line screen, 48 h

Where “and” joins values, the source holds several entries; their conditions need not be identical. Equal values may be shown once.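 In this assay, cells in 96-well plates receive the compound at five concentrations for 48 hours. Endpoints are linearly interpolated between the surrounding concentrations. GI50 marks 50% less growth. At the TGI there is no net growth.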

As for `COc1ccccc1Nc1nc2ccccc2c2occc12`, the GI50 with SK-OV-3 ovarian is 16.1 µM; in the test with SF-295 CNS, 20.1 µM; in the test on SK-MEL-28 melanoma, 8.3 µM; in the test with SR leukemia, 9.33 µM; with SN12C renal, 10.7 µM; in the test on UO-31 renal it was 14.7 µM. Also, the figures for the GI50 in the test on NCI/ADR-RES ovarian, in the test on HS 578T breast and with NCI-H522 lung were 13.8 µM, 22.1 µM and 12 µM, respectively. The TGI in the test with SK-OV-3 ovarian is more than 50 µM; with SF-295 CNS it was more than 50 µM; in the test with SK-MEL-28 melanoma it was 40.2 µM; in the test on SR leukemia, 20.3 µM; in the test with SN12C renal, 33.8 µM; in the test on UO-31 renal, 24 µM. The TGI in the test with NCI/ADR-RES ovarian is 32.4 µM; in the test on HS 578T breast it was 49 µM; in the test with NCI-H522 lung it was 29.7 µM.
Turning to `CNC(C)[C@H]1CCC2C3CCC4C[C@@H](N(C)C(=O)c5ccccc5)CC[C@]4(C)C3CC[C@@]21C` (some centres not stated), the GI50 in the test with SK-OV-3 ovarian was 2.06 µM; in the test with SF-295 CNS it was 1.25 µM; in the test on SK-MEL-28 melanoma, 1.36 µM; with SN12C renal it was 1.82 µM; with NCI-H226 lung, 2.01 µM; in the test on UO-31 renal it was 0.794 µM. The GI50 with NCI/ADR-RES ovarian is 2.57 µM; in the test on HS 578T breast, 1.34 µM; with NCI-H522 lung, 2.32 µM. Further, the TGI in the test with SK-OV-3 ovarian is 5.29 µM; in the test on SF-295 CNS, 3.36 µM; in the test on SK-MEL-28 melanoma it was 2.9 µM; in the test on SN12C renal it was 8.34 µM; with NCI-H226 lung, 12.9 µM; with UO-31 renal it was 2.69 µM. The TGI with NCI/ADR-RES ovarian was 15.5 µM; in the test on HS 578T breast, 3.94 µM; in the test on NCI-H522 lung it was 8.5 µM.
Regarding `C[C@@H]1CC[C@@H]2[C@@H]1[C@H](OC(=O)c1ccc3ccccc3c1)[C@]1(C3CCCCC3)C[C@@H](OC(=O)CO)[C@@]2(C)O1`, the GI50 in the test with SK-OV-3 ovarian was 14.4 µM; in the test with SF-295 CNS, 11.6 µM; in the test with SK-MEL-28 melanoma, 13.9 µM; with SR leukemia, 3.4 µM; in the test on SN12C renal, 0.0525 µM; in the test on NCI-H226 lung, 11.6 µM. Also, the values for the GI50 in the test on NCI/ADR-RES ovarian, in the test on HS 578T breast and in the test on NCI-H522 lung were 0.543 µM, 0.023 µM and 10.3 µM, respectively. Also, the TGI in the test with SK-OV-3 ovarian turned out to be 29 µM; in the test with SF-295 CNS, 25.3 µM; in the test with SK-MEL-28 melanoma it was 28.5 µM; with SR leukemia, 14.4 µM; in the test on SN12C renal, 12.6 µM; with NCI-H226 lung, 26.2 µM. The TGI worked out at 19.4 µM in the test with NCI/ADR-RES ovarian, 0.0757 µM with HS 578T breast and 24.1 µM with NCI-H522 lung.
Turning to `COc1cccc2c1C(=O)c1c(O)c3c(c(O)c1C2=O)C[C@@](O)(C(C)=O)C[C@@H]3OC1CC(O)C(O)C(C)O1` (some centres not stated), the TGI with SK-OV-3 ovarian is 8.99 µM and 42.6 µM; with SK-MEL-28 melanoma it was 25 µM; in the test with SR leukemia, 0.451 µM and 0.497 µM; in the test with SN12C renal, 8.75 µM and 17.5 µM; in the test on NCI-H226 lung, 4.77 µM and 1.58 µM; in the test with UO-31 renal it was 10 µM. In addition, the TGI in the test with HS 578T breast was 6.93 µM; in the test with NCI-H522 lung, 9.44 µM and 7.38 µM. Also, the GI50 in the test on SR leukemia was 0.089 µM and 0.0887 µM; in the test with NCI/ADR-RES ovarian, 0.000214 µM.
`CSC(=NC#N)S/C=C/C(=O)c1cccc2ccccc12`: the GI50 in the test with SK-OV-3 ovarian is 61.1 µM; with SF-295 CNS, more than 100 µM; with SK-MEL-28 melanoma, 28.7 µM; with SR leukemia it was 4.71 µM; in the test on SN12C renal it was 31.1 µM; in the test on UO-31 renal, 26 µM. Also, the GI50 was 40.8 µM in the test with NCI/ADR-RES ovarian, 40.4 µM in the test on HS 578T breast and 28.5 µM in the test with NCI-H522 lung. Moreover, the TGI with SK-OV-3 ovarian is more than 100 µM; in the test with SF-295 CNS, more than 100 µM; with SK-MEL-28 melanoma, 73.4 µM; in the test on SR leukemia, more than 100 µM; in the test on SN12C renal, more than 100 µM; in the test with UO-31 renal, 73.5 µM. For the same compound, the TGI in the test on NCI/ADR-RES ovarian was more than 100 µM; with HS 578T breast, more than 100 µM; with NCI-H522 lung it was 81.4 µM.
For `CCCCCCCC(=O)NS(=O)(=O)c1ccccc1`, the TGI in the test on SK-OV-3 ovarian, in the test with SF-295 CNS, in the test on SK-MEL-28 melanoma, with SR leukemia, in the test with UO-31 renal and in the test on NCI/ADR-RES ovarian was more than 100 µM in each case. Further, the TGI with HS 578T breast and in the test with NCI-H522 lung was more than 100 µM each time.
As to `Clc1ccc(-c2nc(C(Cl)Cl)nc3cc(-c4ccccc4)nn23)cc1`, the GI50 in the test with SK-OV-3 ovarian is 1.38 µM; in the test on SF-295 CNS, 1.45 µM; with SR leukemia, 0.645 µM; with SN12C renal, more than 50 µM; with NCI-H226 lung, more than 50 µM; with UO-31 renal, 2.04 µM. The GI50 with NCI/ADR-RES ovarian was 1.27 µM; in the test on HS 578T breast, 1.38 µM; in the test on NCI-H522 lung it was 1.52 µM. Moreover, the TGI in the test with SK-OV-3 ovarian was 4.75 µM; with SF-295 CNS, more than 50 µM; with SR leukemia, 3.94 µM; with SN12C renal it was more than 50 µM; in the test on NCI-H226 lung, more than 50 µM; in the test on UO-31 renal, more than 50 µM. In addition, the TGI with NCI/ADR-RES ovarian, in the test with HS 578T breast and with NCI-H522 lung was more than 50 µM in each case.
Consider `COC(=O)c1ccc(NC(N)=NCC(C)(C)COc2ccc(C(F)(F)F)cc2)nc1`, for which the GI50 in the test with SK-OV-3 ovarian is 1.8 µM; in the test on SF-295 CNS, 1.61 µM; in the test with SK-MEL-28 melanoma, 1.64 µM; in the test with SN12C renal, 1.79 µM; in the test with UO-31 renal, 1.35 µM; in the test with NCI/ADR-RES ovarian it was 1.68 µM. In addition, the GI50 is 1.97 µM in the test with HS 578T breast and 1.6 µM in the test with NCI-H522 lung. Besides, the TGI in the test on SK-OV-3 ovarian is 3.45 µM; with SF-295 CNS, 3.04 µM; in the test on SK-MEL-28 melanoma, 3.08 µM; with SN12C renal it was 3.41 µM; in the test with UO-31 renal, 2.7 µM; in the test on NCI/ADR-RES ovarian, 3.34 µM. Also, the TGI was found to be 4.33 µM with HS 578T breast and 3.23 µM in the test with NCI-H522 lung.
Consider `O=C(Nc1cc(C(F)(F)F)cc(C(F)(F)F)c1)Nc1ccc(OCc2nnc(-c3ccc(Cl)cc3)o2)c(F)c1`, for which the GI50 in the test with SK-OV-3 ovarian was 2.69 µM; in the test with SF-295 CNS, 1.14 µM; in the test with SK-MEL-28 melanoma, 3.3 µM; with SR leukemia, 2.38 µM; with SN12C renal it was 2.61 µM; with NCI-H226 lung, 2.93 µM. The GI50 is 1.86 µM in the test with UO-31 renal, 1.85 µM in the test with NCI/ADR-RES ovarian and 2.38 µM with HS 578T breast. In addition, the TGI in the test with SK-OV-3 ovarian stood at 9.51 µM; in the test on SF-295 CNS it was 6.91 µM; in the test on SK-MEL-28 melanoma, 15.1 µM; in the test with SR leukemia, 10 µM; in the test with SN12C renal, 15.7 µM; with NCI-H226 lung, 12.5 µM. Also, the TGI was found to be 8.75 µM in the test on UO-31 renal, 7.91 µM with NCI/ADR-RES ovarian and 12.1 µM in the test on HS 578T breast.
